Experimental data reported in patent US20240315989A1 (priority 2021, published 2024).
Where two headings read alike, the source gives them in different places.

Assays:
COVID-19 [1] = system: COVID-19
SARS-CoV-2 infection = assay: Retrospective cohort (BJC Healthcare): antidepressant exposure and ED or hospital encounter within 30 days; type: in vivo, human; conditions: share of exposed outpatients with an encounter after a positive SARS-CoV-2 test
[2] = system: α1-, α2-, β-adrenergic, muscarinic, dopamine D2, histamine H1, GABA-benzodiazepine, opiate, 5-HT1, or 5-HT2 receptors; conditions: cited from earlier work
[3] = system: LPS- or fecal slurry-induced inflammatory response; conditions: cited from earlier work; for Survival: wildtype mice, LPS, IRE1-mediated inflammation, fecal-induced peritonitis
COVID-19 [4] = conditions: cited from earlier work
[5] = system: COVID-19 (SARS-CoV-2 infection)
[6] = cited from earlier work
[7] = Bayesian, moderately optimistic prior

## COCCCC/C(=N\OCCN)c1ccc(C(F)(F)F)cc1.O=C(O)/C=C\C(=O)O [fluvoxamine, 5-methoxy-4′-(trifluoromethyl)valerophenone-(E)-O-(2-aminoethyl)oxime maleate (1:1)]
COVID-19 [1]; [7]
  Probability RR <1: 97.2%
  Probability RR ≤0.9: 89.9%
COVID-19 [1]; Bayesian, weakly neutral prior
  Probability RR <1: 94.1%
  Probability RR ≤0.9: 81.6%
COVID-19 [1]; Frequentist analysis
  Probability RR <1: 98.3%
  Probability RR ≤0.9: 91.1%
COVID-19 [1]; frequentist meta-analysis
  Probability of at least a moderate effect: 91.1%
  Probability that fluvoxamine prevents hospitalization: 98.3%
SARS-CoV-2 infection
  ED or hospital encounter within 30 days, %: 21.1%
[2]
  Affinity for α1-, α2-, β-adrenergic, muscarinic, dopamine D2, histamine H1, GABA-benzodiazepine, opiate, 5-HT1, or 5-HT2 receptors: negligible affinity
[3]; S1R KO animals
  Effect on endotoxic shock-induced death: no significant effect
[3]; wildtype mice exposed to LPS or fecal slurry
  Cytokine levels: reduced cytokine levels
[3]
  Survival: increased survival
[3]; listed as FLV
  Survival: enhanced survival
COVID-19 [4]; 95% CI 0.36-0.94
  HR for death vs matched controls: 0.58
COVID-19 [4]; ICU patients, 100 mg three times daily
  Patients who died, %: 58.8%
COVID-19 [4]; in vivo
  Reduced risk of death vs matched controls: 42%
COVID-19 [4]; of 51 ICU patients, 100 mg three times daily
  Patients who died, No.: 30
[5]
  Clinical status on 7-point scale, difference between group means vs placebo: −0.22
  Most severe baseline symptom change score, difference between group means vs placebo: 0.3
[5]; 30 days after day 15
  30-d post trial observation events, %: (1.3) %
[5]; day 0 to day 15, 0-10 scale
  Most severe baseline symptom change score (difference between baseline and final rating): −5.6
[5]; difference in proportions
  30-d post trial observation events, absolute difference vs placebo: −0.1
  Absolute difference vs placebo, 7-point scale 0 (none): 8.3
  Absolute difference vs placebo, 7-point scale 1: −2.8
  Absolute difference vs placebo, 7-point scale 3: −4.2
  Absolute difference vs placebo, 7-point scale 5: −1.4
  Absolute difference vs placebo, 7-point scale any nonzero value: −8.3
[5]; n = 80
  Clinical status on 7-point scale, mean (SD): 0
  WHO scale, 0-1 = uninfected or ambulatory, %: (100%)
  WHO scale, 2 = limitation of activities, %: (0%)
  WHO scale, 2 = limitation of activities, No: 0
  WHO scale, 3 = hospitalized, no O2 needed, %: (0%)
  WHO scale, 3 = hospitalized, no O2 needed, No: 0
  WHO scale, 4 = hospitalized, O2 needed, %: (0%)
  WHO scale, 4 = hospitalized, O2 needed, No: 0
  WHO scale, 5 = non-invasive vent or high-flow O2, %: (0%)
  WHO scale, 5 = non-invasive vent or high-flow O2, No: 0
  WHO scale, 6 = ventilator needed, %: (0%)
  WHO scale, 6 = ventilator needed, No: 0
  WHO scale, 7 = ventilator + additional organ support, %: (0%)
  WHO scale, 7 = ventilator + additional organ support, No: 0
  WHO scale, 8 = Death, %: (0%)
  WHO scale, total participants with values >1, %: (0%)
  WHO scale, total participants with values >1, No: 0
[5]; n = 80, 15 days
  7-point scale, 1 = O2 sat <92% but no supplemental O2, %: (0%)
  7-point scale, 1 = O2 sat <92% but no supplemental O2, No: 0
  7-point scale, 2 = Above + supplemental O2 needed, %: (0%)
  7-point scale, 2 = Above + supplemental O2 needed, No: 0
  7-point scale, 3 = Above + hospitalization needed, %: (0%)
  7-point scale, 3 = Above + hospitalization needed, No: 0
  7-point scale, 4 = Above + ventilator needed (<3 days), %: (0%)
  7-point scale, 4 = Above + ventilator needed (<3 days), No: 0
  7-point scale, 5 = Above + ventilator needed (≥3 days), %: (0%)
  7-point scale, 5 = Above + ventilator needed (≥3 days), No: 0
  7-point scale, 6 = Death, %: (0%)
  7-point scale, total participants with values >0 (any nonzero value), No: 0
  7-point scale, total participants with values >0, %: (0%)
[5]; of 80, 30 days after day 15
  30-d post trial observation events (emergency department visit, hospitalization, or both), No.: 1
[6]; 35,368 people, 66 studies
  Nausea, % of patients: 15.7%
[6]; in vivo
  Another serious adverse event (suicide attempt, depression, death, accidental injury): < 0.4%
  Serious adverse events requiring hospitalization: 1.6%
[6]; taking the medication for a psychiatric disorder
  Serious adverse events, % of people: approximately 2.0%
STOP COVID trial dosing
  Maximum dose tolerated over 15 days 200 mg/day (100 twice daily), %: (45%)
  Maximum dose tolerated over 15 days 200 mg/day (100 twice daily), Number: 36
  Maximum dose tolerated over 15 days 300 mg/day (100 three times daily), %: (50%)
  Maximum dose tolerated over 15 days 300 mg/day (100 three times daily), Number: 40
  Not able to reach 200 mg/day, %: (5%)
  Not able to reach 200 mg/day, Number: 4
StopCovid, N = 80
  Acute on chronic respiratory failure, %: (0%)
  Acute on chronic respiratory failure, number: 0
  Bacterial infection, %: (1.3%)
  Bacterial infection, number: 1
  Chest pain or tightness, %: (0%)
  Chest pain or tightness, number: 0
  Fever, %: (0%)
  Fever, number: 0
  Flank pain, %: (0%)
  Flank pain, number: 0
  Gastroenteritis, nausea, or vomiting, %: (1.3%)
  Gastroenteritis, nausea, or vomiting, number: 1
  Headache or head pain, %: (2.5%)
  Headache or head pain, number: 2
  Number of patients with any serious adverse event: 1
  Number of patients with any serious adverse event, %: (1.3%)
  Number with any adverse event: 12
  Number with any adverse event, %: (15%)
  Pneumonia, %: (3.8%)
  Pneumonia, number: 3
  Shortness of breath, %: (2.5%)
  Shortness of breath, number: 2
  Teeth chattering, %: (1.3%)
  Teeth chattering, number: 1
  Vasovagal syncope, %: (1.3%)
  Vasovagal syncope, number: 1
  hypercapnia, %: (0%)
  hypercapnia, number: 0
  muscle aches, %: (1.3%)
  muscle aches, number: 1
N = 80, 15 days
  Acute respiratory failure, No. of adverse events (%): 0 No. (%)
  Bacterial infection, No. of adverse events (%): 1 (1.3) No. (%)
  Chest pain or tightness, No. of adverse events (%): 0 No. (%)
  Fever, No. of adverse events (%): 0 No. (%)
  Flank pain, No. of adverse events (%): 0 No. (%)
  Gastroenteritis, nausea, or vomiting, No. of adverse events (%): 1 (1.3) No. (%)
  Headache or head pain, No. of adverse events (%): 2 (2.5) No. (%)
  Hypercapnia, No. of adverse events (%): 0 No. (%)
  Muscle aches, No. of adverse events (%): 1 (1.3) No. (%)
  Other adverse events, by No. of patients (%): 11 (13.8) No. (%)
  Pneumonia, No. of adverse events (%): 3 (3.8) No. (%)
  Serious adverse events, by No. of patients (%): 1 (1.3) No. (%)
  Shortness of breath, No. of adverse events (%): 2 (2.5) No. (%)
  Teeth chattering, No. of adverse events (%): 1 (1.3) No. (%)
  Vasovagal syncope, No. of adverse events (%): 1 (1.3) No. (%)
